Legend:
[1] = Pharmacokinetics in fasted male Sprague Dawley rats, single dose; assay type: in vivo; conditions: rat, po, analyte EZE in plasma, single dose 100 mg/kg crystalline EZE or equivalent amount of amorphous EZE
Description: The pharmacokinetics of crystalline EZE and the amorphous 1 EZE: 3 PVP+2% SLS spray dried powder were studied in male Sprague Dawley rats in the fasted state. Six rats were single-dosed with either 100 mg/kg crystalline EZE or an equivalent amount of the amorphous EZE of Example 2.

[2] = cited from earlier work

Cmax [1]: 5.1 ng/mL | Tmax [1]: 8 h | AUC(0-t) ([1]; read-out: AUC0-24 h): 64.2 ng·h/mL
SMILES: O=C1[C@H](CC[C@H](O)c2ccc(F)cc2)[C@@H](c2ccc(O)cc2)N1c1ccc(F)cc1 [crystalline, 1-(4-fluorophenyl)-3(R)-[3-(4-fluorophenyl)-3(S)-hydroxypropyl]-4(S)-(4-hydroxyphenyl)-2-azetidinone]
solubility in water [2]: insoluble in water

From patent publication US20080085315A1, “Amorphous ezetimibe and the production thereof” (priority 2006, published 2008)
